Assay results reported in US20080152640A1, “Means and Methods For Treating a Disease Which is Associated With an Excess Transport of Hyaluronan Across a Lipid Bilayer” (priority 2003, published 2008).
Read-outs that look alike come from different tables or passages of the source.

Tests used:
MRP transporters [1] = test system: T1, MRP transporters; details: human erythrocytes; cited from earlier work
T1 construct: other: human erythrocytes

MRP transporters [2] = target: MRP transporters (Homo sapiens, UniProt P33527); details: read-out: IC50 for MRP transporter; cited from earlier work
hyaluronan transport = test: Inhibition of hyaluronan transport (export) from human fibroblasts, discussion of Example 9; details: human fibroblasts
Method: Cells from five culture flasks (180 cm2 growth area) were washed with cold phosphate buffered saline (PBS), harvested with the aid of a rubber policeman, sedimented at 1500 g for 5 min and suspended in 30 ml of ice-cold PBS. The cells were transferred into a Parr-cell disruption bomb, exposed to a nitrogen pressure of 900 psi for 15 min and disrupted by nitrogen cavitation [18] and the particulate fraction was obtained by centrifugation at 40000 g for 20 min. […] Hyaluronan synthesis was stopped by adding a solution of 10% sodium dodecylsuifate (SDS) to a final concentration of 1%. The mixtures were applied to descending paper chromatography that was developed with ethanol/aq. 1 M ammonium acetate pH 5.5 (13:7) as solvent. After 18 h the radioactivity of [14C]hyaluronan at the origin was determined.
Trypsinised fibroblasts were suspended in Dulbecco's medium at 10^5 cells/ml and 100 μl aliquots were transferred to a 96 well microtiter plate. The first row received 200 μl of the suspension and 20 μl of the multidrug resistance inhibitors dissolved in DMSO at concentrations of 4 mM. A serial dilution to the inhibitors was established by transfer of 100 μl aliquots from the first row to the following rows. All experiments were performed in duplicates. […] The cells were incubated for 2 days at 37° C. and aliquots (5 and 20 μl) of the culture medium were used for measurement of the hyaluronan concentration in the cell culture medium by an ELISA [19]. […] The mixtures were transferred to the hyaluronan-coated test plate and incubated for 1 hour at 37° C. The microtiter plate was washed three times with buffer A and incubated with 100 μl/well of a solution of streptavidin-horseraddish-peroxidase (Amersham) at a dilution of 1:100 in phosphate buffered saline, 0.1% Tween-20 for 30 min at room temperature. The plate was washed five times with buffer A and the colour was developed by incubation with a 100 μl/well of a solution of 5 mg o-phenylenediamine and 5 μl 30% H2O2 in 10 ml of 0.1 M citrate-phosphate buffer pH 5.3 for 25 min at room temperature. The adsorption was read at 490 nm. The concentrations in the samples were calculated from a logarithmic regression curve of the hyaluronan standard solutions.
Three parameters were measured: 1. The amount of hyaluronan produced during growth into the culture supernatant. 2. The hyaluronan synthase activity in particulate membrane fractions to eliminate the possibility that inhibition of hyaluronan production in cell culture could be caused indirectly by cellular mediators. 3. The effect on cell proliferation, because hyaluronan synthesis is also required for detachment during mitosis and growth of the human HT1080 cell line [14].

MDR1 = MDR1 (Homo sapiens, UniProt P08183); details: cited from earlier work
hyaluronan synthase = details: read-out: HA synthase activity (IC50); membranes of human fibroblasts
MRP1 = MRP1 (Homo sapiens, UniProt P33527); details: read-out: published inhibitory concentrations IC50 or Ki, MRP1; cited from earlier work
MRP7 = target: T2, MRP7 (Homo sapiens, UniProt Q5T3U5); details: cited from earlier work
T2 sequence (Q5T3U5 1-1492): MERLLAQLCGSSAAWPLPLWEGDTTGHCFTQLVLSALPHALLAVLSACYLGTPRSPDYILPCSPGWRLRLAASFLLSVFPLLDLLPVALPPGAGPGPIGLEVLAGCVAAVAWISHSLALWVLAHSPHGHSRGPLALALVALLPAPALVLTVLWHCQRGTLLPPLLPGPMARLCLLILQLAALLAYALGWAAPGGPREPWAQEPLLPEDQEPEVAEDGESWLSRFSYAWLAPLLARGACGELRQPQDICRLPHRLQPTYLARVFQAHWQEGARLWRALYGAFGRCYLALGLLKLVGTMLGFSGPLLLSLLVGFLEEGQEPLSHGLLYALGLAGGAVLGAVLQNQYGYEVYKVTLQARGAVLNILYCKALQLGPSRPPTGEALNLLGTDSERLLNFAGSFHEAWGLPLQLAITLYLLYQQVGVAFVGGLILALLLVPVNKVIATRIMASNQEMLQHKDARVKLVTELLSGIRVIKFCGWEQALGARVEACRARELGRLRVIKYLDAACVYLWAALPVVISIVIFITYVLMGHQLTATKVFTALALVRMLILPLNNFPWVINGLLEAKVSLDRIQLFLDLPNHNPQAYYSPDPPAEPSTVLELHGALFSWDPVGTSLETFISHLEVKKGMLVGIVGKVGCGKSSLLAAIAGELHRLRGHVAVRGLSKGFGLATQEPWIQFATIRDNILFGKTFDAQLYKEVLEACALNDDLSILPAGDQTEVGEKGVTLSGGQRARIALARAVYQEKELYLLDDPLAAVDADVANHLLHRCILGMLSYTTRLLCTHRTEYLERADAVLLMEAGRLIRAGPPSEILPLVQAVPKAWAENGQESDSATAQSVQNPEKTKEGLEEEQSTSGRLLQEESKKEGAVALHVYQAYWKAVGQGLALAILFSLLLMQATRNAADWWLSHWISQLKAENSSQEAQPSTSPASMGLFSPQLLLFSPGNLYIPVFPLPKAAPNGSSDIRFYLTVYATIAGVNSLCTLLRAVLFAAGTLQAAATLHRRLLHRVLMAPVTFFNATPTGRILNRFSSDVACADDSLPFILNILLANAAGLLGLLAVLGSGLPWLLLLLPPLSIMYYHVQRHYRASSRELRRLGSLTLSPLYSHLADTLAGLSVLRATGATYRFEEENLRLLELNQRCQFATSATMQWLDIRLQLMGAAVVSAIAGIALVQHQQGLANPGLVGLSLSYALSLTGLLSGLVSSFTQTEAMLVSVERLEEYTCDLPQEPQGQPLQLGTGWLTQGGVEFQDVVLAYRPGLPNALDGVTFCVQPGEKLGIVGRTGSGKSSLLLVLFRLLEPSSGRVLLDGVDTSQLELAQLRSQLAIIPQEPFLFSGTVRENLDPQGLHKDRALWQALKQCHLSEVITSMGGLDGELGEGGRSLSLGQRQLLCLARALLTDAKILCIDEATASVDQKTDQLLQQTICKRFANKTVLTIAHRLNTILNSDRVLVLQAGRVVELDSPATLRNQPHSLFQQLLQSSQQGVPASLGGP

Sequence of MDR1 (P08183 whole entry): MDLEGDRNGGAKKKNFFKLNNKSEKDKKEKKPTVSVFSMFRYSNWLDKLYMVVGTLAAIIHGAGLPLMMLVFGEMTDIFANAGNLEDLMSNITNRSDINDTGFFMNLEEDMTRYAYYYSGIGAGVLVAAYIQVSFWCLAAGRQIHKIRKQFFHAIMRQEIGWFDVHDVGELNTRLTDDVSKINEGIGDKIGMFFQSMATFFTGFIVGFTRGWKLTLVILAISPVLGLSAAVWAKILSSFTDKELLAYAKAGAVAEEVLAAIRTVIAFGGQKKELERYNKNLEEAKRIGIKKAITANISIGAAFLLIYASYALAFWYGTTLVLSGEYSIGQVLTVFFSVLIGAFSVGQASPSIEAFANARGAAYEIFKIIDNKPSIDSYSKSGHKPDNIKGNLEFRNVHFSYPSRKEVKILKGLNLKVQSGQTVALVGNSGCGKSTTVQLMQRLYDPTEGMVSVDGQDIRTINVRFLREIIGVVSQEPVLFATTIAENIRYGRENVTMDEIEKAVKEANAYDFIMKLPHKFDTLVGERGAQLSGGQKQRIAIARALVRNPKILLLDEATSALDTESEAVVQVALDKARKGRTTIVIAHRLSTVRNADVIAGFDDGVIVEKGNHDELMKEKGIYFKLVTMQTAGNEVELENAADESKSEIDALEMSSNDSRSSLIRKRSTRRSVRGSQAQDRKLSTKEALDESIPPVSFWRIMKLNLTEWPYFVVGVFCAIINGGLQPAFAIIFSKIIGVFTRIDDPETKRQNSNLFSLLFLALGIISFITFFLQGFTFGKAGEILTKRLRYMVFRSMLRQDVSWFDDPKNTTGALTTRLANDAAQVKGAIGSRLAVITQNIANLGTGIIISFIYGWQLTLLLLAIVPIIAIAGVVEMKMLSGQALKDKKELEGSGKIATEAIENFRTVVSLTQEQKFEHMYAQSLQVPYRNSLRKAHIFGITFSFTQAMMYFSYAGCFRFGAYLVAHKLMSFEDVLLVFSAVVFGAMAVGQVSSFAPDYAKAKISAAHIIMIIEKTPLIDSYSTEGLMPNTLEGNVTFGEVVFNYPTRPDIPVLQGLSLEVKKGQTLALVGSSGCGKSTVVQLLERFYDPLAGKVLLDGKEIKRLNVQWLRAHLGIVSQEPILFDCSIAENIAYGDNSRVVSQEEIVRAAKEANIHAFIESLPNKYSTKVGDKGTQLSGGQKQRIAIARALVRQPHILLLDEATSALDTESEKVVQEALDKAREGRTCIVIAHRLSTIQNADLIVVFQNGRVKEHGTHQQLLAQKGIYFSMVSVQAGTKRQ
Sequence of MRP transporters (Homo sapiens, UniProt P33527) (P33527 whole entry): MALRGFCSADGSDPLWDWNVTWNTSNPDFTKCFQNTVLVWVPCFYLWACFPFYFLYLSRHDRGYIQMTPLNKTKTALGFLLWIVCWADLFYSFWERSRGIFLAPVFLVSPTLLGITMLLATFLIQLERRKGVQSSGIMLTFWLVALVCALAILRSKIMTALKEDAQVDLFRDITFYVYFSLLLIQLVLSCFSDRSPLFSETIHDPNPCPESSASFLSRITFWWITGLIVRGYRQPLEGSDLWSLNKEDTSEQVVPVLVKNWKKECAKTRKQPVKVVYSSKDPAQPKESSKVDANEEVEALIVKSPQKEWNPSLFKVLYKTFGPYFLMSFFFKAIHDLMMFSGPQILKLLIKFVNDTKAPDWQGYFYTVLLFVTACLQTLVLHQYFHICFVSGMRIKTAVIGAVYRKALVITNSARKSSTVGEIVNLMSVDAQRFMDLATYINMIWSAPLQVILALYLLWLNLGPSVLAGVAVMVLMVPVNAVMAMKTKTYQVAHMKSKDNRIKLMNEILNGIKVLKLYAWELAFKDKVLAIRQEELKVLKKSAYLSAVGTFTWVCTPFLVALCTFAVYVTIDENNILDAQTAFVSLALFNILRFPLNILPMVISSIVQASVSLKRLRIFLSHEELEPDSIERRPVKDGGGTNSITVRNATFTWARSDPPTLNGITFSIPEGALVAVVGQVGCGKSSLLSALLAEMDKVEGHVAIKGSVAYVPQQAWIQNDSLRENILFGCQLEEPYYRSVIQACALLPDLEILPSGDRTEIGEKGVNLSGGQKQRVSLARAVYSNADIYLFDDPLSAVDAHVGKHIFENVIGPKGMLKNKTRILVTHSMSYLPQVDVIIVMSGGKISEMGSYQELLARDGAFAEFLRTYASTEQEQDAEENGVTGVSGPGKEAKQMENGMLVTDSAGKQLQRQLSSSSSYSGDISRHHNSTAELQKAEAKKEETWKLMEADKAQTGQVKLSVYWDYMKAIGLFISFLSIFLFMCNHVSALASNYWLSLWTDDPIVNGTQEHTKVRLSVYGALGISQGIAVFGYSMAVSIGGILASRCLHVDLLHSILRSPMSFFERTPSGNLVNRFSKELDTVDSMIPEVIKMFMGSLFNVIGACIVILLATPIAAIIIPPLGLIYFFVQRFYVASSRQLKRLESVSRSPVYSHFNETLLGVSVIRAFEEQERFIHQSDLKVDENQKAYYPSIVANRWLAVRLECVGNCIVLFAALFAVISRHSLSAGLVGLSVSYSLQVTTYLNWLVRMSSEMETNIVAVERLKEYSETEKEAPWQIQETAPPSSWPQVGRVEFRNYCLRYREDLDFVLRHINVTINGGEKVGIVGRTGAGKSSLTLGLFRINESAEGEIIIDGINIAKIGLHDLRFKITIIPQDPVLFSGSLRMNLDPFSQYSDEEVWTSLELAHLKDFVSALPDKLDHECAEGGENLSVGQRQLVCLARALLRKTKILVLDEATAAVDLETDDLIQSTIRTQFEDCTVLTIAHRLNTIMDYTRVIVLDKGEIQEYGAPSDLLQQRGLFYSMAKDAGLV
Sequence of MRP1 (P33527 whole entry): as above

CCCN(CCC)S(=O)(=O)c1ccc(C(=O)O)cc1 [Probenecid]
IC50 (MRP transporters [1]): 100 to 200 µM
IC50 (MRP transporters [2]): 500 to 800 µM
inhibition of hyaluronan transport (words) (hyaluronan transport): inhibited hyaluronan transport
IC50 (MDR1; read-out: IC50 for MDR1): > 2000 µM
IC50 (MDR1; read-out: published inhibitory concentrations IC50 or Ki, MDR1): > 2000 µM
IC50 (hyaluronan synthase): 200 µM
IC50 (MRP1): 100 to 200 µM
inhibition of 17β-glucuronosyl-estradiol export by MRP7 (MRP7): weak inhibitor
published inhibitory concentrations IC50 or Ki, MRP7 (MRP7): weak
